Assay results taken from article PMC10060639, “Prediction and bioactivity of small-molecule antimicrobial peptides from Protaetia brevitarsis Lewis larvae” (Frontiers in Microbiology, 2023).
Read-outs that look alike come from different tables or passages of the source. Ends that are not written are not given here.

Columns and labels:
E. coli [1] = experiment: agar punch method, inhibition circle; format: cell-based, Escherichia coli; conditions: 6 mm hole, 55 μL of 1 mg/mL, NA, 37°C, 16–18 h, mean ± SD, three replicates, + control given per plate group
Procedure: (§1) Staphylococcus aureus CMCC(B) 26003, B. thuringiensis, E. coli, and P. aeruginosa CMCC(B)10104 were cultured in NA medium and C. albicans CMCC(F) 98001 was cultured in SDA medium. They were incubated in a constant-temperature (bacteria: 37°C; fungi: 28°C) incubator for 16–20 h. Thereafter, single colonies were picked and incubated in 50 mL MHB at 160 rpm/min at the optimal growth temperature (bacteria: 37°C; fungi: 28°C). Microbial suspensions of 1 × 10^6 CFU/mL were then prepared ([Chen et al., 2016]).
(§2) 100 μL of 1 × 10^6 CFU/mL microbial suspension (E. coli, P. aeruginosa CMCC(B)10104, B. thuringiensis, S. aureus CMCC(B) 26003, or C. albicans CMCC(F) 98001) was evenly applied to dishes containing 20 mL NA (bacteria) or SDA (fungi). After the microbial solution solidified, six holes per dish were punched with a sterile pipette tip of 6 mm in diameter, with each hole spaced >20 mm apart and > 10 mm apart from the edge of the dish. […] Next, 55 μL of 1 mg/mL control/treatment was added to each hole and incubated in a constant-temperature (bacteria: 37°C; fungi: 28°C) incubator for 16–18 h ([Chen et al., 2016]; [Gong et al., 2022]), with three replicates for each treatment group. The diameter of the inhibition circle was measured using ImageJ software (National Institutes of Health, United States) in order to preliminarily determine whether the candidate peptides had inhibitory activity.

[2] = test system: P. aeruginosa CMCC(B)10104; experiment: agar punch method, inhibition circle; format: cell-based, Pseudomonas aeruginosa; conditions: 6 mm hole, 55 μL of 1 mg/mL, NA, 37°C, 16–18 h, mean ± SD, three replicates, + control given per plate group
Procedure: as §1, §2

S. aureus CMCC(B) 26003 [3] = experiment: agar punch method, inhibition circle; format: cell-based, Staphylococcus aureus; conditions: 6 mm hole, 55 μL of 1 mg/mL, NA, 37°C, 16–18 h, mean ± SD, three replicates, + control given per plate group
Procedure: as §1, §2

[4] = test system: C. albicans CMCC(F) 98001; experiment: agar punch method, inhibition circle; format: cell-based, Candida albicans; conditions: 6 mm hole, 55 μL of 1 mg/mL, SDA, 28°C, 16–18 h, mean ± SD, three replicates, + control given per plate group
Procedure: as §1, §2

B. thuringiensis [5] = experiment: agar punch method, inhibition circle; format: cell-based, Bacillus thuringiensis; conditions: 6 mm hole, 55 μL of 1 mg/mL, NA, 37°C (Fig. S3C: 30°C), 16–18 h, mean ± SD, three replicates, + control given per plate group
Procedure: as §1, §2

S. aureus CMCC(B) 26003 [6] = format: cell-based, Staphylococcus aureus
Procedure: as §1
(§3) The MIC values of five candidate peptides (FD4, FD10, FD12, FD14, and FD15), which were selected based on physicochemical properties and antimicrobial effects (determined by the agar punch method), were evaluated using a micro-broth dilution method ([Zhou and Zhou, 2018]). Serial two-fold dilutions of the candidate peptides were prepared in 96-well plates containing the same microbial inoculum (E. coli, P. aeruginosa CMCC(B)10104, B. thuringiensis, S. aureus CMCC(B) 26003, or C. albicans CMCC(F) 98001). The plates were incubated (bacteria: 37°C; fungi: 28°C) for 16–18 h. Ampicillin was used as the positive control. The MIC was defined as the lowest peptide concentration where no visible growth occurred ([Diao et al., 2014]). The experiment was conducted in triplicate.

B. thuringiensis [7] = format: cell-based, Bacillus thuringiensis
Procedure: as §1, §3

[8] = test system: P. aeruginosa CMCC(B)10104; format: cell-based, Pseudomonas aeruginosa
Procedure: as §1, §3

E. coli [9] = format: cell-based, Escherichia coli
Procedure: as §1, §3

S. aureus CMCC(B) 26003 [10] = format: cell-based, Staphylococcus aureus; remark: listed apart in the source
Procedure: (§4) E. coli and S. aureus CMCC(B) 26003 (1 × 10^6 CFU/mL) were incubated in MHB with various final physiological concentrations of serum salts (150 mM NaCl, 4.5 mM KCl, 1 mM MgCl2, and […]). 50 μL of these E. coli or S. aureus CMCC(B) 26003 suspensions and 50 μL of AMP (serially diluted two-fold to a final concentration of 256 μg/mL) were added to a 96-well plate and incubated at 37°C for 16–18 h ([Chou et al., 2016]). The MIC values were then determined. The experiment was conducted in triplicate.

[11] = test system: C. albicans CMCC(F) 98001; format: cell-based, Candida albicans
Procedure: as §1, §3

E. coli [12] = format: cell-based, Escherichia coli; remark: listed apart in the source
Procedure: as §4

S. aureus CMCC(B) 26003 [13] = experiment: time-kill assay; format: cell-based, Staphylococcus aureus; conditions: 2× MIC, MHB with 10^6 CFU/mL, 37°C, 100 rpm, colony counting, n = 3
Procedure: (§5) The kill-time curve assay method was used to investigate the bactericidal effects of the […] according to the technique described by [Joray et al. (2011)]. A time–kill assay was used to examine the rate at which three AMPs (FD10, FD12, and FD15) killed two microbes (S. aureus CMCC(B) 26003 and E. coli) in vitro over time, based on the number of viable bacteria left at various time points after AMP exposure. Briefly, AMP at 2× MIC was added to MHB containing 10^6 CFU/mL S. aureus CMCC(B) 26003 or E. coli and the mixture was then incubated at 37°C and 100 rpm. At various time points, a sample was taken, serially diluted, and plated on MHA for colony counting ([Flamm et al., 2019]).

E. coli [14] = experiment: time-kill assay; format: cell-based, Escherichia coli; conditions: 2× MIC, MHB with 10^6 CFU/mL, 37°C, 100 rpm, colony counting, n = 3
Procedure: as §5

[15] = micro-broth dilution, two-fold dilutions, 37°C, 16–18 h, no visible growth, triplicate

| Substance | Inhibition circle diameter (mm) E. coli (E. coli [1]) [mm] | Inhibition circle diameter (mm) P. aeruginosa CMCC(B)10104 [2] [mm] | Inhibition circle diameter (mm) S. aureus CMCC(B) 26003 (S. aureus CMCC(B) 26003 [3]) [mm] | Inhibition circle diameter (mm) C. albicans CMCC(F) 98001 [4] [mm] | Inhibition circle diameter (mm) B. thuringiensis (B. thuringiensis [5]) [mm] | also measured |
| --- | --- | --- | --- | --- | --- | --- |
| LARTLKRLGM [FD2] | 0 | 0 | 0 | 0 | 0 |  |
| STLHLVLRLR [FD16] | 0 | 0 | 0 | 0 | 0 |  |
| IVHLLTKMTK [FD4] |  |  |  |  |  | MIC (μg/mL) S. aureus CMCC(B) 26003 (S. aureus CMCC(B) 26003 [6]; CMCC(B) 26003): 256 µg/mL |
| IRAWVAWRNR [FD3] | 0 | 0 | 0 | 0 | 0 |  |
| KLLVPRCR [FD6] | 0 | 0 | 0 | 0 | 0 |  |
| AFQRTIRKFL [FD5] | 0 | 0 | 0 | 0 | 0 |  |
| ANWDKVIR [FD13] | 0 | 0 | 0 | 0 | 0 |  |
| LVTRAAFHGKKV [FD8] | 0 | 0 | 0 | 0 | 0 |  |
| FPVGRVHRLL [FD11] | 0 | 0 | 0 | 0 | 0 |  |
| ANWKKVIR [FD14] |  |  |  |  |  | MIC (μg/mL) B. thuringiensis (B. thuringiensis [7]): 256 µg/mL; MIC (μg/mL) P. aeruginosa CMCC(B)10104 ([8]; CMCC(B)10104): 256 µg/mL; MIC (μg/mL) E. coli (E. coli [9]): 256 µg/mL |
| RIGRLVTRAAF [FD7] | 0 | 0 | 0 | 0 | 0 |  |
| VFRLKKWIQKVI [FD10] |  |  |  |  |  | MIC (μg/mL) B. thuringiensis (B. thuringiensis [7]): 8 µg/mL; MIC (μg/mL) P. aeruginosa CMCC(B)10104 ([8]; CMCC(B)10104): 8 µg/mL; MIC (μg/mL) E. coli (E. coli [9]): 8 µg/mL; MIC, Control (S. aureus CMCC(B) 26003 [10]; CMCC(B) 26003): 16 µg/mL; MIC, FeCl3 (S. aureus CMCC(B) 26003 [10]; CMCC(B) 26003): 16 µg/mL; MIC, KCl (S. aureus CMCC(B) 26003 [10]; CMCC(B) 26003): 8 µg/mL; MIC, MgCl2 (S. aureus CMCC(B) 26003 [10]; CMCC(B) 26003): 32 µg/mL; MIC, NaCl (S. aureus CMCC(B) 26003 [10]; CMCC(B) 26003): 32 µg/mL; MIC (μg/mL) S. aureus CMCC(B) 26003 (S. aureus CMCC(B) 26003 [6]; CMCC(B) 26003): 16 µg/mL; MIC (μg/mL) C. albicans CMCC(F) 98001 ([11]; CMCC(F) 98001): 16 µg/mL; MIC, Control (E. coli [12]): 8 µg/mL; MIC, FeCl3 (E. coli [12]): 4 µg/mL; MIC, KCl (E. coli [12]): 4 µg/mL; MIC, MgCl2 (E. coli [12]): 16 µg/mL; MIC, NaCl (E. coli [12]): 16 µg/mL |
| SLARAGKVR [FD9] | 0 | 0 | 0 | 0 | 0 |  |
| KIYVLLRRQA [FD12] |  |  |  |  |  | MIC (μg/mL) B. thuringiensis (B. thuringiensis [7]): 128 µg/mL; MIC (μg/mL) E. coli (E. coli [9]): 32 µg/mL; MIC, Control (S. aureus CMCC(B) 26003 [10]; CMCC(B) 26003): 16 µg/mL; MIC, FeCl3 (S. aureus CMCC(B) 26003 [10]; CMCC(B) 26003): 32 µg/mL; MIC, KCl (S. aureus CMCC(B) 26003 [10]; CMCC(B) 26003): 8 µg/mL; MIC, MgCl2 (S. aureus CMCC(B) 26003 [10]; CMCC(B) 26003): 32 µg/mL; MIC, NaCl (S. aureus CMCC(B) 26003 [10]; CMCC(B) 26003): 32 µg/mL; MIC (μg/mL) S. aureus CMCC(B) 26003 (S. aureus CMCC(B) 26003 [6]; CMCC(B) 26003): 16 µg/mL; MIC, Control (E. coli [12]): 32 µg/mL; MIC, FeCl3 (E. coli [12]): 32 µg/mL; MIC, KCl (E. coli [12]): 16 µg/mL; MIC, MgCl2 (E. coli [12]): 64 µg/mL; MIC, NaCl (E. coli [12]): 64 µg/mL |
| STLHLVLRLR-NH2 [FD15, FD16 with -NH2 added to the terminal] | 11.18 ± 0.38 | 0 | 10.02 ± 0.22 | 0 | 9.15 ± 0.44 | MIC (μg/mL) B. thuringiensis (B. thuringiensis [7]; [15]): 128 µg/mL; time within which almost all S. aureus cells were killed (S. aureus CMCC(B) 26003 [13]): ≤ 1 h; MIC (μg/mL) P. aeruginosa CMCC(B)10104 [8, 15]: - (−Indicated that the MIC was greater than 256 μg/mL.); time within which almost all E. coli cells were killed (E. coli [14]): ≤ 1 h; MIC (μg/mL) E. coli (E. coli [9]; [15]): 32 µg/mL; MIC, MgCl2 (S. aureus CMCC(B) 26003 [10]; S. aureus CMCC(B) 26003, MHB with 1 mM MgCl2, 37°C, 16–18 h, triplicate): 64 µg/mL; MIC, FeCl3 (S. aureus CMCC(B) 26003 [10]; S. aureus CMCC(B) 26003, MHB with 4 mM FeCl3, 37°C, 16–18 h, triplicate): 32 µg/mL; MIC, KCl (S. aureus CMCC(B) 26003 [10]; S. aureus CMCC(B) 26003, MHB with 4.5 mM KCl, 37°C, 16–18 h, triplicate): 32 µg/mL; MIC, NaCl (S. aureus CMCC(B) 26003 [10]; S. aureus CMCC(B) 26003, MHB with 150 mM NaCl, 37°C, 16–18 h, triplicate): 64 µg/mL; MIC, Control (S. aureus CMCC(B) 26003 [10]; S. aureus CMCC(B) 26003, MHB, absence of physiological salts, 37°C, 16–18 h, triplicate): 16 µg/mL; MIC (μg/mL) S. aureus CMCC(B) 26003 (S. aureus CMCC(B) 26003 [6]; [15]): 16 µg/mL; MIC (μg/mL) C. albicans CMCC(F) 98001 ([11]; micro-broth dilution, two-fold dilutions, 28°C, 16–18 h, no visible growth, triplicate): - (−Indicated that the MIC was greater than 256 μg/mL.); MIC, MgCl2 (E. coli [12]; E. coli, MHB with 1 mM MgCl2, 37°C, 16–18 h, triplicate): 64 µg/mL; MIC, FeCl3 (E. coli [12]; E. coli, MHB with 4 mM FeCl3, 37°C, 16–18 h, triplicate): 16 µg/mL; MIC, KCl (E. coli [12]; E. coli, MHB with 4.5 mM KCl, 37°C, 16–18 h, triplicate): 64 µg/mL; MIC, NaCl (E. coli [12]; E. coli, MHB with 150 mM NaCl, 37°C, 16–18 h, triplicate): 64 µg/mL; MIC, Control (E. coli [12]; E. coli, MHB, absence of physiological salts, 37°C, 16–18 h, triplicate): 32 µg/mL |
| VACAKRVVR [FD1] | 0 | 0 | 0 | 0 | 0 |  |
